Earlier results as cited in US20230024050A1, “Dermatological Compositions and Methods of Treatment against Cutaneous T-Cell Lymphoma” (Soligenix, Inc., priority 2021, published 2023).
Like-named read-outs stand apart in the source and are kept apart here.

How the values were obtained:
[1] = tested on: CTCL patients IA, IB, IIA refractory to ≥2 previous treatments; conditions: at end of therapy, time not stated
[2] = administered intravenously at much higher doses

Row | SMILES | Response (CAILS), 24 Week ([1]; 6.5 mg/m^2, N = 15) [%^1] | Response (CAILS), 24 Week ([1]; 300 mg/m^2, N = 28) [%^1] | Response (CAILS), 24 Week ([1]; >300 mg/m^2, N = 15) [%^1] | Significant AEs on intravenous administration [2]
1 | C=C(c1ccc(C(=O)O)cc1)c1cc2c(cc1C)C(C)(C)CCC2(C)C [Oral Bexarotene, Bexarotene] | 20 | 36 | 47 | –
2 | Cc1cc(O)c2c(=O)c3c(O)cc(O)c4c5c(O)cc(O)c6c(=O)c7c(O)cc(C)c8c1c2c(c34)c(c78)c65 [hypericin] | – | – | – | does not cause significant AEs other than those related to photoactivity
